# From ChEMBL document CHEMBL1201862, “PubChem BioAssay data set” (2004)
# The source made the active and inactive calls.
# Assays:
# [1] = growth suppression of PTEN-null colon cells, dose response, cell-based, HCT116 PTEN knockout (AID 1047); format: functional;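 further: HCT116 colon tumor cells with PTEN knocked out; cells exposed to compound for 60 hours before readout; potency for loss of cell viability measured by luminescence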
# [2] = growth suppression of beta-catenin-knockout colon cells, dose response, cell-based, HCT116, human colon tumor (AID 1045); format: functional;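 further: HCT116 colon tumor cells with beta catenin knocked out; cells exposed to compound for 60 hours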
# [3] = biological target: T1, Sentrin-specific protease 8 (Homo sapiens, UniProt Q96LD8); format: functional
# T1 sequence (Q96LD8 whole entry): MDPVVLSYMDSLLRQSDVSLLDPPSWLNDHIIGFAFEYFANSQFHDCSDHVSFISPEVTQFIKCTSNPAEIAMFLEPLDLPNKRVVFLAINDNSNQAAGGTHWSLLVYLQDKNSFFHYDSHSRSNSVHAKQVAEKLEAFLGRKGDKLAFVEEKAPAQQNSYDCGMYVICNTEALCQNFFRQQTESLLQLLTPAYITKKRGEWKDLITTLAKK
# [4] = biological target: T1, Sentrin-specific protease 8; format: functional; remark: listed apart in the source
# [5] = biological target: T2, Mannose-6-phosphate isomerase (Homo sapiens, UniProt P34949); assay: human PMI inhibitors, high substrate, primary screen, biochemical, fluorescence intensity, high mannose 6-phosphate (AID 1220)
# T2 sequence (P34949 whole entry): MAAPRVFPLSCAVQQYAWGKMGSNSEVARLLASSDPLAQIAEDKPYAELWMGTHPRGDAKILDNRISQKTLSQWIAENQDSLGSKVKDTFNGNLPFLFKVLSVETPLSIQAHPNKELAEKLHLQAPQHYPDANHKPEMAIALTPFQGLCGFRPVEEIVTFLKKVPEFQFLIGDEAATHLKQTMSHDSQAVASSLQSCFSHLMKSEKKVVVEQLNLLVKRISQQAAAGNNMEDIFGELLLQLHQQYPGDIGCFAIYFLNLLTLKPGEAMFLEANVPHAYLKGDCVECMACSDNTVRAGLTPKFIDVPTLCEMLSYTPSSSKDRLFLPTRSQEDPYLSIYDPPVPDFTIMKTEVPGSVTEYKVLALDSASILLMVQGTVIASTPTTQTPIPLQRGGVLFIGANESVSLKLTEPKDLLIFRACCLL
# [6] = HepG2 cell cytotoxicity, dose response, cytotoxicity control for Shn3 inhibitor project, CellTiter-Glo, cherry-picked (AID 624134); format: functional, cell-based
# [7] = Shn3 3'UTR reporter inhibitors, dose response, cell-based, Clone20 osteoblasts, firefly luciferase, cherry-picked (AID 624132); format: functional;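 further: firefly luciferase luminescence from reporter carrying the Shn3 3'UTR in osteoblasts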
# [8] = biological target: T3, Carboxy-terminal domain RNA polymerase II polypeptide A small phosphatase 1 (Homo sapiens, UniProt Q9GZU7); assay: inhibitors of CTDSP1, concentration-response testing, biochemical assay, absorbance-based, actives from ultra-high-throughput screening (AID 540297); format: functional
# T3 sequence (Q9GZU7 whole entry): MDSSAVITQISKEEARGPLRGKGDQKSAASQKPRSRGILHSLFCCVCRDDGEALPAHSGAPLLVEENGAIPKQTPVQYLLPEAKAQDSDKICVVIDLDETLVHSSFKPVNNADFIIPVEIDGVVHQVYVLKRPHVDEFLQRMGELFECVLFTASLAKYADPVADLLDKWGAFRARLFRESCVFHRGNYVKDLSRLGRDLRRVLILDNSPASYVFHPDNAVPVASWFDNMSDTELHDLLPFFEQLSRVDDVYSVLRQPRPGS
# [9] = control 3'UTR Renilla luciferase suppression, dose response, counter-screen for Shn3 inhibitor project, cell-based, Clone20-Shn3RL, cherry-picked (AID 624133); format: functional
# cells [10] = format: functional, cell-based
# cells [11] = format: functional, cell-based; remark: listed apart in the source
# [12] = biological target: T4, Heat shock factor protein 1 (Mus musculus, UniProt P38532); assay: inhibition of MG132-induced HSE-luciferase signal, confirmation, cell-based, NIH3T3, luminescence, dose retest (AID 2382); format: functional;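 further: NIH3T3 fibroblasts with HSF1-driven luciferase reporter stressed by proteasome inhibitor MG132; luminescence from HSF1-driven luciferase expression after 8 hours of MG132 stress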
# T4 sequence (P38532 whole entry): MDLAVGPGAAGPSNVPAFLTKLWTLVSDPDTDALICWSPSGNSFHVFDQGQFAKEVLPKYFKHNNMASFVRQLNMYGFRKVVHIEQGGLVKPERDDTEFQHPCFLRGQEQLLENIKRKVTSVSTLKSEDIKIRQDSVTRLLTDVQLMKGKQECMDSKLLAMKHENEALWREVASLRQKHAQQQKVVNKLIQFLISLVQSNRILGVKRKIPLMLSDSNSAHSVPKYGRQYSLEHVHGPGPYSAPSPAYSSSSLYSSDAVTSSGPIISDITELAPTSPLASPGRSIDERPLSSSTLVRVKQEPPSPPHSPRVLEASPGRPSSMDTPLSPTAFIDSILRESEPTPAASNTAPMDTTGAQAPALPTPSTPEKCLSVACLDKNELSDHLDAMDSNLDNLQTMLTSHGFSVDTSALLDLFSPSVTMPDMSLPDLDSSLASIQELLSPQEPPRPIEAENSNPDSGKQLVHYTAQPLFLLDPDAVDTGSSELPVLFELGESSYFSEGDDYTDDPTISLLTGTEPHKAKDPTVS
# [13] = Luminescence Cell-Based Dose Retest to Confirm Inhibitors of Cancer Stem Cells. [Related pubchem assays (depositor defined):AID2717, AID2721]; format: functional; conditions: Homo sapiens
# [14] = inhibitors of SNCA 5'UTR-driven reporter translation, confirmation, H4 neuroglioma cells, luminescence (AID 1988); format: functional, cell-based
# [15] = biological target: T5, Microphthalmia-associated transcription factor (Homo sapiens, UniProt O75030); assay: TRPM1 promoter luciferase signal decrease, dose response, MITF inhibitor project, cell-based, SK-MEL-5, cherry-picked, set 3 (AID 493073); format: functional
# T5 sequence (O75030 whole entry): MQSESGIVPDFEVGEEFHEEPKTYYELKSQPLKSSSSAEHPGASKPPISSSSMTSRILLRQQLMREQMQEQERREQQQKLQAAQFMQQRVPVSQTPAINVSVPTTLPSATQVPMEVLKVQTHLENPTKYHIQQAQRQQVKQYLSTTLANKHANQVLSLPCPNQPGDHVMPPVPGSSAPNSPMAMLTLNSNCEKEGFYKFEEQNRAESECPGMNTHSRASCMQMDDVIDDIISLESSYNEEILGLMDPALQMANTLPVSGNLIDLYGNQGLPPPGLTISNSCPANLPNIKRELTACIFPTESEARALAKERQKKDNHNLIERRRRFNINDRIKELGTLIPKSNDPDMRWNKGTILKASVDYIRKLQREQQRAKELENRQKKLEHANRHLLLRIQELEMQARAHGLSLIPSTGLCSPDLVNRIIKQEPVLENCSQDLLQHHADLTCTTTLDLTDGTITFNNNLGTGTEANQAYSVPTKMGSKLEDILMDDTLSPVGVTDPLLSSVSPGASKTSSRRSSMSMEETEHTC
# [16] = inhibitors of firefly luciferase expression or activity, dose response, H4 neuroglioma cells, luminescence (AID 1990); format: functional, cell-based
# [17] = Luminescence Cell-Based Dose Response HTS to Identify Inhibitors of 5'UTR Stem-Loop Driven Prion Protein mRNA Translation in H4 Neuroglioblastoma Cells. [Related pubchem assays: 1827 (Project Summary), 1813 (Primary HTS)]; format: functional
# H9c2 = assay: cells; format: functional, cell-based; conditions: Rattus norvegicus, H9c2, Myocardium;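 further: confirmatory concentration-response retest of ultra-high-throughput screening hits for modulation of myocardial damage; cell death induced by hydrogen peroxide oxidative stress; compound pretreatment for 60 min then peroxide exposure for 2 h; potency is for protecting the cells against peroxide damage rather than for killing them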
# [18] = inhibitors of clade B AD8 Env fusion, dose response, cell-based, cherry-pick (AID 652062); format: functional;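 further: luciferase signal from cell-cell fusion driven by HIV-1 clade B AD8 Env; potency is for inhibitors of fusion seen as a drop in luminescence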
# [19] = biological target: T6, Rac GTPase-activating protein 1 (Homo sapiens, UniProt Q9H0H5); assay: MgcRacGAP GTPase-activating activity inhibitors, confirmation, biochemical, ADP Hunter fluorescence, primary and confirmatory (AID 624330); format: functional
# T6 sequence (Q9H0H5 whole entry): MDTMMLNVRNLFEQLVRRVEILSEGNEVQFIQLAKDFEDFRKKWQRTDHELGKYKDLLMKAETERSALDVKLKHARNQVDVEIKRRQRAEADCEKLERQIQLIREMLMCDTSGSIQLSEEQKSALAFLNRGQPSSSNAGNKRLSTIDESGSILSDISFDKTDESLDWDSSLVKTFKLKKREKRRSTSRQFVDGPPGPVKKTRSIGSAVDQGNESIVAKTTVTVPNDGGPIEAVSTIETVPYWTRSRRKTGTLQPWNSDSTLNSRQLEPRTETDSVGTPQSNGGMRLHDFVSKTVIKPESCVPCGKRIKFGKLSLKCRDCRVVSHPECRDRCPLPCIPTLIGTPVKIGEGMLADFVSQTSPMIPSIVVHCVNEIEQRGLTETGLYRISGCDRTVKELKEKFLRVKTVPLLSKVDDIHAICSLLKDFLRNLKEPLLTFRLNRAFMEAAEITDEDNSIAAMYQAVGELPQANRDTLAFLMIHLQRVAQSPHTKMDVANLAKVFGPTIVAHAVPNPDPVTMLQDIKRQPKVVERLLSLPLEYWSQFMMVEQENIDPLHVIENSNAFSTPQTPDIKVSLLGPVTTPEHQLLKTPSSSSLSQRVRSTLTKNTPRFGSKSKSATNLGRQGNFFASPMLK
structure (smiles),measurement,setting,value
Cc1cc(S(=O)(=O)N2CCN(Cc3ccc4c(c3)OCO4)CC2)cc(C)c1N1CCCC1=O,EC50,[1],45.7 µM (active)
same,EC50,[2],36 µM (active)
CN(c1ccc(C(=O)N2CCc3ccccc3C2)cc1)S(C)(=O)=O,IC50,[3],13.1 µM (active)
same,IC50,[4],90.5 µM (inactive)
Cn1cccc1/C=C1\CCc2ccccc2C1=O,IC50,[5],> 50 µM (not active)
COC(=O)CCC(=O)OC1(C)C(=O)C=C2C=C3CCCN3C=C2C1=O (configuration not stated),IC50,[3],7.67 µM (active)
same,IC50,[4],6.06 µM (active)
COc1ccc(Nc2nc(N)nc(CN3CCC(Cc4ccccc4)CC3)n2)cc1,EC50,[1],17.7 µM (active)
same,EC50,[2],23.5 µM (active)
CC(C)(C)OC(=O)NCc1ccc(CNC(=O)c2nc[nH]c2C(=O)NCc2ccc(CNC(=O)OC(C)(C)C)cc2)cc1,AC50,[6],> 70 µM (inactive)
same,AC50,[7],5.89 µM (active)
O=C(/C=C/c1ccco1)N1CCN(S(=O)(=O)c2ccccc2)CC1,IC50,[8],4.94 µM (active)
CC(NC(=O)Nc1cccc([N+](=O)[O-])c1)(C(F)(F)F)C(F)(F)F,EC50,[1],12 µM (active)
same,EC50,[2],12.3 µM (active)
Cc1ccc(C(NC(=O)C2CCCCC2)c2c(O)ccc3ccccc23)cc1 (configuration not stated),EC50,[1],17.4 µM (active)
same,EC50,[2],21.5 µM (active)
COc1ccccc1N=C(N)Nc1nc(O)cc(CSc2ccc(C)cc2)n1,AC50,[6],59.8 µM (active)
same,AC50,[9],12.4 µM (active)
same,AC50,[7],2.95 µM (active)
COc1ccccc1N(CC(=O)NCc1ccco1)S(=O)(=O)c1ccc(C)cc1,IC50,[8],5.17 µM (active)
Cc1ccc(-n2nc3c(=O)n(CC(=O)NCc4ccccc4)nc(C)c3c2C)cc1,EC50,cells [10],> 350 µM (not active)
same,EC50,cells [11],> 350 µM (not active)
NC(=S)NNc1cccc2cccnc12,IC50,[3],6 µM (active)
same,IC50,[4],7.91 µM (active)
OCCC1CN(Cc2c(O)ccc3ccccc23)CCN1CCc1ccccc1 (configuration not stated),IC50,[5],> 50 µM (not active)
CCC1CCc2sc(C(=O)NCc3ccccn3)cc2C1 (configuration not stated),EC50,cells [10],52.4 µM (active)
same,EC50,cells [11],> 350 µM (not active)
CN1CCN(CC(=O)n2c3c(c4ccccc42)CCCC3)CC1,IC50,[3],16.6 µM (active)
same,IC50,[4],> 100 µM (inactive)
same,EC50,[12],> 195 µM (not active)
Cc1ccc(C(=O)N2C(=S)C(c3ccc(F)cc3)=NC23CCN(C)CC3)cc1,IC50,[3],15 µM (active)
same,IC50,[4],> 100 µM (inactive)
Cc1ccc(C(=O)OCC(=O)c2ccc(CC(=O)N3CCOCC3)s2)cc1C,IC50,[8],5.01 µM (active)
COc1ccc(C2c3ccc4ccccc4c3Oc3ncn(Cc4ccco4)c(=N)c32)cc1OC (configuration not stated),EC50,[1],7.09 µM (active)
same,EC50,[2],8.96 µM (active)
same,AC50,[13],3.94 µM (active)
Cc1cc(N2CCOCC2)nc2ccc(NC(=S)N3CCCCC3C)cc12 (configuration not stated),IC50,[5],> 50 µM (not active)
COc1cc(NC(c2ccccc2)c2ccccc2)cc(OC)c1OC,IC50,[5],> 50 µM (not active)
O=C(/C=C/c1ccc(Cl)cc1)NC(=S)Nc1ccccc1C(=O)O,IC50,[8],8.66 µM (active)
CC(Oc1ccc(F)cc1)C(=O)Nc1nc(-c2ccccn2)cs1 (configuration not stated),EC50,[14],> 120 µM (not active)
same,AC50,[15],9.42 µM (active)
same,EC50,[16],> 120 µM (not active)
same,EC50,[17],10.2 µM (active)
same,IC50,H9c2,> 79 µM (inactive)
Nc1ccn([C@@H]2O[C@H](C(=O)NCc3ccc4c(c3)OCO4)[C@@H](O)[C@H]2O)c(=O)n1,AC50,[18],0.723 µM (active)
CC(=O)N(CCc1ccccc1)c1ccc2c(c1)C1CC2CCN1C(=O)OCc1ccccc1 (configuration not stated),AC50,[6],> 70 µM (inactive)
same,AC50,[7],14.3 µM (active)
Cn1nc(C(C)(C)C)cc1C(=O)N1CCCCC1c1cc(C(=O)Nc2ccc(F)c(Cl)c2)no1 (configuration not stated),AC50,[6],5.09 µM (active)
same,AC50,[9],5.06 µM (active)
same,AC50,[7],3.04 µM (active)
CCS(=O)(=O)N1CCCC(C(=O)N2CCc3ccccc3C2)C1 (configuration not stated),IC50,[3],17.7 µM (active)
same,IC50,[4],71.7 µM (inactive)
COc1ccc(/C=N/NC(=O)c2cccc(NC(=O)c3ccc(Cl)cc3)c2)c(OC)c1,IC50,[8],6.27 µM (active)
Cc1ccc(O)c(/C=N/c2ccc3[nH]ncc3c2)c1,IC50,[5],> 50 µM (not active)
same,IC50,[19],27.7 µM (active)
O=C(O)c1ccc(N2C(=O)CSC2=S)cc1,EC50,cells [10],> 350 µM (not active)
same,EC50,cells [11],> 350 µM (not active)
